pKi: −log10 of the molar value. Read-outs that look alike come from different tables or passages of the source.
Legend:
D3 = D3 (Homo sapiens, UniProt P35462); test: NIMH PDSP radioligand competition binding, D3
H1 = H1 (Homo sapiens, UniProt P35367); test: NIMH PDSP radioligand competition binding, H1
5-HT1A = biological target: T1, 5-HT1A (Homo sapiens, UniProt P08908); test: NIMH PDSP radioligand competition binding, 5-HT1A
T1 sequence (P08908 1-422): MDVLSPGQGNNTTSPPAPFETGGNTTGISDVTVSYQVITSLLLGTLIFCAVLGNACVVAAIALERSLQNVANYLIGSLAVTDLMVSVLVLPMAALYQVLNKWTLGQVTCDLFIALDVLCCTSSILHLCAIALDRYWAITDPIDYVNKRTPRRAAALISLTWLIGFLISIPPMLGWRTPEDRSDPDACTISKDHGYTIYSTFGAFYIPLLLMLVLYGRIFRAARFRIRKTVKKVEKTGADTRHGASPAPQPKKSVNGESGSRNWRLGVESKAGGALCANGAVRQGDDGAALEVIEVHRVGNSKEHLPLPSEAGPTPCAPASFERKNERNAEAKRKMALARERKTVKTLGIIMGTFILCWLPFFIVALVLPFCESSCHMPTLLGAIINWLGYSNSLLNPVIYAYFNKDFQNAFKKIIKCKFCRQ

5-HT1D = 5-HT1D (Homo sapiens, UniProt P28221); test: NIMH PDSP radioligand competition binding, 5-HT1D
Chain of 5-HT1D (P28221 whole entry): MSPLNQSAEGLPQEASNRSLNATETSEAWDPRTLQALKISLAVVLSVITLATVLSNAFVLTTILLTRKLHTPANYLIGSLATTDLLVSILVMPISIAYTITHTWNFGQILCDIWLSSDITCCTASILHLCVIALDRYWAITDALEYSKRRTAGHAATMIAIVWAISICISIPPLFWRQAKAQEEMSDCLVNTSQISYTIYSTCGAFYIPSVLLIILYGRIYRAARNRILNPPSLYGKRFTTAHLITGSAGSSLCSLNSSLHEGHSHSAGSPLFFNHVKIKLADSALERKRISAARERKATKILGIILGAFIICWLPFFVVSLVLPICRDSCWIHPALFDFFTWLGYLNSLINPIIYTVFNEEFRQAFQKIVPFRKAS

5-HT2C = biological target: T2, 5-HT2C (Homo sapiens, UniProt P28335); test: NIMH PDSP radioligand competition binding, 5-HT2C
T2 sequence (P28335 33-458): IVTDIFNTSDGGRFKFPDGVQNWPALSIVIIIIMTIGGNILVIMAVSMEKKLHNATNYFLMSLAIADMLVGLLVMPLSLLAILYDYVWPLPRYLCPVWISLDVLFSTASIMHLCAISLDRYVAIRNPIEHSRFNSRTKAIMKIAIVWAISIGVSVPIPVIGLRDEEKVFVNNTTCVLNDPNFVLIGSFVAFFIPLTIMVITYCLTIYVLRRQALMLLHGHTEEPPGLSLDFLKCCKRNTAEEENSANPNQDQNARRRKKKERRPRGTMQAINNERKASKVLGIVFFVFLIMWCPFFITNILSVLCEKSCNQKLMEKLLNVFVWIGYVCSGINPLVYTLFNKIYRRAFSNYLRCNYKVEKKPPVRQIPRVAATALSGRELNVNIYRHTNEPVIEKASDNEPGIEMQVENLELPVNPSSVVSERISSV

α2B = biological target: T3, α2B (Homo sapiens, UniProt P18089); test: NIMH PDSP radioligand competition binding, α2B
T3 sequence (P18089 1-450): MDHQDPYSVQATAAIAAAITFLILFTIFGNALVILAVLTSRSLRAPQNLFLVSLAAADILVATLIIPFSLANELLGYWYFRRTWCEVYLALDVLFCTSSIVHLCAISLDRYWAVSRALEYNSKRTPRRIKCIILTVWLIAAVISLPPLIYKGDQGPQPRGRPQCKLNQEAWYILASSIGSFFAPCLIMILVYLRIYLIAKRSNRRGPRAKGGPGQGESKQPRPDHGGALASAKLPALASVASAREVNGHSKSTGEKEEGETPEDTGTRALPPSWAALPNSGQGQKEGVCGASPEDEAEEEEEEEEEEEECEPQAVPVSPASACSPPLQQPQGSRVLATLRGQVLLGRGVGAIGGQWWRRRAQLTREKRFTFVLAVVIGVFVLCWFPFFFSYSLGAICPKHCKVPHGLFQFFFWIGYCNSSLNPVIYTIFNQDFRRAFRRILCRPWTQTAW

σ2 = biological target: T4, σ2 (Rattus norvegicus, UniProt Q5U3Y7); test: NIMH PDSP radioligand competition binding, σ2
T4 sequence (Q5U3Y7 1-176): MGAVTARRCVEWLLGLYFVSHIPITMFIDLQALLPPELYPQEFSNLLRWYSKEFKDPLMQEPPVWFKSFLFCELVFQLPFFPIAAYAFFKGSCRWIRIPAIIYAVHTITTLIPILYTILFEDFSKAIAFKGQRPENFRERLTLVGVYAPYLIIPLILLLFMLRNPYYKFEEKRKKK

μ-opioid receptor (MOR) = μ-opioid receptor (MOR) (Homo sapiens, UniProt P35372); test: NIMH PDSP radioligand competition binding, MOR
Chain of μ-opioid receptor (MOR) (P35372 whole entry): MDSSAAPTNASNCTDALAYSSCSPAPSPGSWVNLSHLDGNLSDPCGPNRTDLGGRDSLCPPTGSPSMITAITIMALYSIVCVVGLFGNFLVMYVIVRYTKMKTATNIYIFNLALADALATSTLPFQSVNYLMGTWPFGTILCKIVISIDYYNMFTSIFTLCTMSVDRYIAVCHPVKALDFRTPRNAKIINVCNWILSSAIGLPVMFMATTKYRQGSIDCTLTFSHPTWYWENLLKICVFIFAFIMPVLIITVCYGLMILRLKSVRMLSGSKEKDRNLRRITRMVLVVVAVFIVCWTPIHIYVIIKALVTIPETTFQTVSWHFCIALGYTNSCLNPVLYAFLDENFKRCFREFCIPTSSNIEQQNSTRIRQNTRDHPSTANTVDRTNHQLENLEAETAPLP

[1] = tested on: head twitch response (5-HT2A receptor-mediated); test: Head twitch response; assay type: in vivo, C57BL/6J mice; conditions: for activity in the HTR assay (in words): C57BL/6J mice, IP, within the dose range tested; for ED50: Mus musculus, ip
α1A = biological target: T5, α1A (Homo sapiens, UniProt P35348); test: NIMH PDSP radioligand competition binding, α1A
T5 sequence (P35348 1-466): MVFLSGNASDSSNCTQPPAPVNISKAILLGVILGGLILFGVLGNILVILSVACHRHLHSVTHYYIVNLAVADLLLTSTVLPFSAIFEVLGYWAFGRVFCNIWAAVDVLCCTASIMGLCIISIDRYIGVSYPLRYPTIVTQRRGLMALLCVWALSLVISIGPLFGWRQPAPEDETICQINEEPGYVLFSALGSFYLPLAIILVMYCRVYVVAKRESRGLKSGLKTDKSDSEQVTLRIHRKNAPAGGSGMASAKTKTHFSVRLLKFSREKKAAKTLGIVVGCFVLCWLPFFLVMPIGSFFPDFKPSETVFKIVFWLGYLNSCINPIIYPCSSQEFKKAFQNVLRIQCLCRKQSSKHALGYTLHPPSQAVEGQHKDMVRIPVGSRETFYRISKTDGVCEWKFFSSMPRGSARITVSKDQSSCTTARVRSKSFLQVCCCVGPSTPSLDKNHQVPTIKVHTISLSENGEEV

5-HT1B = 5-HT1B (Homo sapiens, UniProt P28222); test: NIMH PDSP radioligand competition binding, 5-HT1B
Chain of 5-HT1B (P28222 whole entry): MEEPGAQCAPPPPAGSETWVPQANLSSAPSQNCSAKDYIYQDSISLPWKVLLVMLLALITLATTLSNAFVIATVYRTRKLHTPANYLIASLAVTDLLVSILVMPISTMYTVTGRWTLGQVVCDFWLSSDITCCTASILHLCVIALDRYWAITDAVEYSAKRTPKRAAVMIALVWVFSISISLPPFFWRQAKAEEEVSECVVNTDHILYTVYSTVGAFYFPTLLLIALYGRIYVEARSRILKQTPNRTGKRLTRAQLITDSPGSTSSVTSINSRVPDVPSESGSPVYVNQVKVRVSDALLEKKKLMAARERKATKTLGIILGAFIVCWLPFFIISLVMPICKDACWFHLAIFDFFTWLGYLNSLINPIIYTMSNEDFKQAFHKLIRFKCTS

[2] = 0.875 mg/kg IP, duration 30 min
[3] = read-out: ED50 (95% CI) (mg/kg)
[4] = read-out: ED50 (95% CI) (μmol/kg)

Chain of H1 (P35367 whole entry): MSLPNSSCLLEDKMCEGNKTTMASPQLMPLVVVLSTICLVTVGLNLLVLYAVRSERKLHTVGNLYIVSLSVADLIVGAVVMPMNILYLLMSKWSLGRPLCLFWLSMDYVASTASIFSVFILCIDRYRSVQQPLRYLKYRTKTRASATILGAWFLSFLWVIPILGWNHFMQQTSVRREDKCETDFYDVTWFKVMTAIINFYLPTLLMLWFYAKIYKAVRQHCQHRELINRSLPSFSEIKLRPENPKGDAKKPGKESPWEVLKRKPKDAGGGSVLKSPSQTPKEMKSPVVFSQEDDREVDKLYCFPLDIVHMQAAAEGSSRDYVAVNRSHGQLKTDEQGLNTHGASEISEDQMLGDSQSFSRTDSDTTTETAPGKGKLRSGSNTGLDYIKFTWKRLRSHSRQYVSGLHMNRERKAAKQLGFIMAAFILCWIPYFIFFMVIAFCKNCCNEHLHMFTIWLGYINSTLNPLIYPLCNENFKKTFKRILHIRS
Chain of D3 (P35462 whole entry): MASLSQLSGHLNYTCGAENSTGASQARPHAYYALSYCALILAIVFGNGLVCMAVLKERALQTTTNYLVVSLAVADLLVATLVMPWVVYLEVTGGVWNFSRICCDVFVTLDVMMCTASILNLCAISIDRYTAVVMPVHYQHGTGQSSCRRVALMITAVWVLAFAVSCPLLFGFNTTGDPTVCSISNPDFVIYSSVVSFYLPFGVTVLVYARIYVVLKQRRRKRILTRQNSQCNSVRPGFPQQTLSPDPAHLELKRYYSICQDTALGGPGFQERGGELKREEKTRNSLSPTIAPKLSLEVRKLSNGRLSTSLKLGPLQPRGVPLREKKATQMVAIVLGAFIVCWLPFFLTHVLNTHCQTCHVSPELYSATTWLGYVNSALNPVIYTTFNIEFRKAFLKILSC

Row | Structure (SMILES) | pKi (D3) | pKi (H1) | pKi (5-HT1A) | pKi (5-HT1D) | pKi (5-HT2C) | pKi (α2B) | pKi (σ2) | pKi (μ-opioid receptor (MOR)) | HTR Counts (mean ± SEM) [1, 2] | HTR Counts (mean ± SEM) ([1]; 1.75 mg/kg IP, duration 30 min) | HTR Counts (mean ± SEM) ([1]; 3.5 mg/kg IP, duration 30 min) | HTR Counts (mean ± SEM) ([1]; 7 mg/kg IP, duration 30 min) | HTR Counts (mean ± SEM) ([1]; 14 mg/kg IP, duration 30 min) | pKi (α1A) | pKi (5-HT1B) | activity in the HTR assay (in words) [1] | ED50 [1, 3] [mg/kg] | ED50 [1, 4] [µmol/kg] | further results
1 | C=CCN(CC=C)CCc1c(C)[nH]c2ccc(OC)cc12 [5-MeO-2-Me-DALT, 5-methoxy-2-methyl-N,N-diallyltryptamine] | 5.62 | 6.07 | 6.57 | 6.05 | < 5.00 | 6.47 | 5.91 | < 5.00 | 4.4 ± 0.2 | 7.4 ± 2.2 | 4.2 ± 1.0 | 4.2 ± 0.9 | 5.0 ± 1.4 | 5.92 | 5.64 |  |  |  | activity in the HTR assay (in words) ([1]; listed as 5-methoxy-2-methyl-DALT): did not induce the HTR
2 | C=CCN(CC=C)CCc1c(-c2ccccc2)[nH]c2ccccc12 [2-Ph-DALT, 2-phenyl-N,N-diallyltryptamine] | 6.47 | 7.10 | 6.40 | 6.69 | 6.56 | 7.11 | 6.14 | < 5.00 | 2.8 ± 0.5 | 3.6 ± 1.3 | 1.4 ± 0.5 | 2.0 ± 0.5 | 1.2 ± 0.5 | 7.12 | 6.56 | abolished activity |  |  | activity in the HTR assay (in words) ([1]; listed as 2-Phenyl-DALT): did not induce the HTR
3 | C=CCN(CC=C)CCc1c(C)[nH]c2ccc(F)cc12 [5-F-2-Me-DALT, 5-fluoro-2-methyl-N,N-diallyltryptamine] | 6.38 | 6.36 | 6.50 | 5.80 | 6.27 | 6.97 | 6.40 | < 5.00 | 6.2 ± 1.0 | 6.8 ± 0.9 | 5.8 ± 2.5 | 6.4 ± 1.6 | 7.2 ± 0.8 | 5.80 | 5.70 |  |  |  | activity in the HTR assay (in words) ([1]; listed as 5-fluoro-2-methyl-DALT): did not induce the HTR
4 | C=CCN(CC=C)CCc1c[nH]c2c(CC)cccc12 [7-Et-DALT, 7-ethyl-N,N-diallyltryptamine] | 5.97 | 6.04 | 5.99 | 5.57 | 6.35 | 6.31 | 6.87 | 5.57 |  |  |  |  |  | < 5.00 | < 5.00 | did not induce the HTR |  |  | HTR Counts (mean ± SEM) ([1]; 15 mg/kg IP, duration 30 min): 9.8 ± 1.8
5 | C=CCN(CC=C)CCc1c[nH]c2cccc(O)c12 [4-HO-DALT, 4-hydroxy-N,N-diallyltryptamine] | 5.80 | < 5.00 | 6.50 | 6.16 | 5.68 | < 5.00 | < 5.00 | < 5.00 |  |  |  |  |  | < 5.00 | 5.60 | active | 2.6 | 8.3 | HTR Counts (mean ± SEM) ([1]; 0.875 mg/kg IP, duration 5 min): 4.0 ± 3.3; HTR Counts (mean ± SEM) ([1]; 1.75 mg/kg IP, duration 5 min): 9.2 ± 3.7; HTR Counts (mean ± SEM) ([1]; 3.5 mg/kg IP, duration 5 min): 28.6 ± 4.1; HTR Counts (mean ± SEM) ([1]; 7 mg/kg IP, duration 5 min): 31.6 ± 4.9; HTR Counts (mean ± SEM) ([1]; 14 mg/kg IP, duration 5 min): 24.6 ± 4.7
6 | C=CCN(CC=C)CCc1c[nH]c2cccc(OC(C)=O)c12 [4-AcO-DALT, 4-acetoxy-N,N-diallyltryptamine] | < 5.00 | 6.45 | 6.42 | 6.10 | 5.82 | 6.77 | < 5.00 | < 5.00 | 10.4 ± 1.4 | 42.0 ± 9.5 | 39.0 ± 14.1 | 65.0 ± 8.4 | 47.8 ± 10.0 | < 5.00 | < 5.00 | active | 1.99 | 4.8 | 

Source: publication PMC6230509 (Neuropharmacology, 2018)
